The structures appear in SMILES notation.

One experiment deals with ACC. Put plainly: ACC phosphorylation in HEK293 cells (western blot). The format is cell-based, human. The settings on record: 1 hr. The procedure: Figure 1 SU6656 Activates AMPK but Not AMPK-Related Kinases (A) HEK293 cells were incubated with the indicated concentrations of SU6656 or berberine (300 μM) for 1 hr; total AMPK activity was assayed in immunoprecipitates (top; mean ± SEM, n = 4), and phosphorylation of AMPK (Thr172), ACC (Ser80), and Raptor (Ser792) analyzed by western blotting (bottom; n = 2). (B) HEK293 cells were incubated with 100 μM SU6656 (1 hr), AMPK complexes containing α1, α2, β1, and β2 immunoprecipitated using isoform-specific antibodies, and AMPK activity measured (mean ± SEM, n = 4). (C) HeLa cells stably expressing LKB1 ([Fogarty et al., 2010]) were incubated with 100 μM SU6656 for 1 hr, AMPK or individual ARKs immunoprecipitated, and kinase assays carried out (antibodies that distinguish MARK2/MARK3 were not available, so they were assayed together). Results are means ± SEM (n = 2). In all panels, asterisks indicate significant differences from controls without SU6656. *p < 0.05, **p < 0.01, ****p < 0.0001.
(B) WT or RG cells were treated as in (A) and nucleotides extracted for analysis (mean ± SD, n = 3). […] (E) (See also Figure S2) Time courses of cellular oxygen uptake before and after addition of the indicated concentrations of sorafenib (SO, μM), SU6656 (100 μM) or phenformin (PHEN, 10 mM) (mean ± SEM, n = 4). (F) Effect of various concentrations of sorafenib or phenformin (10 mM) on activation (top, mean ± SEM, n = 3) or phosphorylation (bottom) of AMPK in cells expressing wild-type AMPK-γ2 (WT) or the R531G mutant AMPK-γ2 (RG). In all panels, asterisks show significant differences from DMSO controls (ns, not significant). […]
Cells were incubated for 60 min and AMPK activity measured; results in the top panel are means ± SEM (n = 8), with significant differences from the DMSO control indicated (ns, not significant). […]
SDS-PAGE was performed using precast Bis-Tris 4–12% gradient polyacrylamide gels in the MOPS buffer system (ThermoFisher Scientific). […] Protein concentrations were determined by Coomassie Blue binding with bovine serum albumin as standard ([Bradford, 1976]). […]
For orientation: In western blotting, separated proteins are transferred to a membrane and probed.

The target of experiment [1] is T1, AMPK-γ2 R531G (RG) mutant (Homo sapiens, UniProt Q9UGJ0, R531G).
T1 construct: expressed in transfected cells
Description: AMPK activity in HEK293 cells expressing R531G AMPK-γ2. The format is cell-based. The settings on record: 1 hr. From the text: The next possibility was that, like several other AMPK-activating drugs, SU6656 inhibits mitochondrial ATP synthesis, and thus activates AMPK indirectly by increasing cellular AMP/ADP. To test this, we used cell lines inducibly expressing either WT AMPK-γ2 or an AMP/ADP-resistant R531G (RG) mutant ([Hawley et al., 2010]). […] There were no effects of SU6656 on cellular oxygen uptake, unlike berberine. Subsequent addition of the uncoupler 2,4-dinitrophenol (DNP), which prevents the respiratory chain from being limited by ADP supply, increased oxygen uptake identically in control and SU6656-treated cells but had no effect following berberine, as expected for a complex I inhibitor (Figure S2).
(B) WT or RG cells were treated as in (A) and nucleotides extracted for analysis (mean ± SD, n = 3). […] (E) (See also Figure S2) Time courses of cellular oxygen uptake before and after addition of the indicated concentrations of sorafenib (SO, μM), SU6656 (100 μM) or phenformin (PHEN, 10 mM) (mean ± SEM, n = 4). (F) Effect of various concentrations of sorafenib or phenformin (10 mM) on activation (top, mean ± SEM, n = 3) or phosphorylation (bottom) of AMPK in cells expressing wild-type AMPK-γ2 (WT) or the R531G mutant AMPK-γ2 (RG). In all panels, asterisks show significant differences from DMSO controls (ns, not significant). In (B), daggers (†) show significant differences between results in WT and RG cells. *p < 0.05, **p < 0.01, ***p < 0.001, ****p < 0.0001, ^††††p < 0.0001.
HEK-293 cells stably expressing tetracycline-inducible FLAG-tagged human AMPK-γ2, or an R531G mutant, were generated by introducing the corresponding DNAs into Flp-In™ T-REx™ 293 cells ([Auciello et al., 2014]). Expression of the FLAG-tagged constructs was induced for 48 hr using tetracycline (1 μg.ml^-1) prior to addition of compounds under test. Transient transfections were carried out 36-48 hr prior to experiments, using Fugene 6 according to manufacturers’ instructions.

The target of a further experiment is T2, AMPK-α1 (WT) (Homo sapiens, UniProt Q13131).
T2 construct: we expressed FLAG-tagged full-length AMPK-α1 either as the WT or the AT mutant; expressed in transfected cells; host or cells: HEK293
Put plainly: AMPK activity of FLAG-tagged AMPK-α1 (WT) expressed in HEK293 cells. The experiment is classed as cell-based. The settings on record: for AMPK activity and Thr172 phosphorylation: WT FLAG-α1, A769662 300 μM, berberine 300 μM, phenformin 10 mM, troglitazone 100 μM, oligomycin 1 μM, SU6656 100 μM. From the text: (§1) (B) Western blotting of the same preparations as in (A). […] (D) Allosteric activation of WT and mutant α1β1γ1 complexes by MT 63-78, curve fitting as for (C). […] (E) Allosteric activation of WT and mutant α1β1γ1 complexes by AMP. Data were fitted to the equation for activation/inactivation by AMP ([Gowans et al., 2013]). […] (F) Activation of WT and AA mutant by various AMPK activators in HEK293 cells. […] FLAG-tagged complexes were isolated by immunoprecipitation and AMPK activity determined (mean ± SEM, n = 2).
(§2) We next expressed the FLAG-tagged WT or AA mutant of AMPK-α1 by transient transfection in HEK293 cells, treated with various agents, and measured AMPK activity in anti-FLAG immunoprecipitates. In Figure 4F, the results are expressed as absolute activities and are accompanied by blots showing Thr172 phosphorylation.
The α1-KD was precipitated using anti-FLAG and endogenous AMPK complexes using anti-α1 antibody, and activity determined. […] (B) Western blots (n = 2) using the indicated antibodies; samples from experiment in (A). (C) DNAs encoding FLAG-tagged AMPK-α1 (WT or AT mutant) were expressed by transient transfection in HEK293 cells, the cells treated with increasing concentrations of SU6656 for 1 hr, AMPK complexes precipitated with anti-FLAG, and activity measured.

The next experiment deals with T3, AMPK-α1 AA mutant (Homo sapiens, UniProt Q13131, K40A/K42A).
T3 construct: Plasmid encoding full-length human AMPK-α1; expressed in transfected cells; host or cells: HEK293
Description: AMPK activity of FLAG-tagged AMPK-α1 K40A/K42A (AA) mutant expressed in HEK293 cells. The format is cell-based.
Description: as §1, §2

T2 sequence (Q13131 whole entry): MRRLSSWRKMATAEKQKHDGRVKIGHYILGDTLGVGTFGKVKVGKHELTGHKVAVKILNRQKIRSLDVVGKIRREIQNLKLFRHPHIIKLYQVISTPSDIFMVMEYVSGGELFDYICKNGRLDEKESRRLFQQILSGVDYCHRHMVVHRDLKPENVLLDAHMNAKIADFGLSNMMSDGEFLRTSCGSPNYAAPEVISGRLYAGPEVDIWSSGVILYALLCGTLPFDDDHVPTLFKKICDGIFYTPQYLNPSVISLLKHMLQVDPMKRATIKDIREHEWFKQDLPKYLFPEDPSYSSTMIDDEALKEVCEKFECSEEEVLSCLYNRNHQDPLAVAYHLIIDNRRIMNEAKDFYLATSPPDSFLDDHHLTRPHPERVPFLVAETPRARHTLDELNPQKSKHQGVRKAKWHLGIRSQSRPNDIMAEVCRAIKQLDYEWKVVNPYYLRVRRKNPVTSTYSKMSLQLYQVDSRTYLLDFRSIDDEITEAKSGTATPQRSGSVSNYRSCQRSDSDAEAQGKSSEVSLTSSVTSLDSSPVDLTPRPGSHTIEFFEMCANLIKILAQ
T2 sequence (P54619 whole entry partner): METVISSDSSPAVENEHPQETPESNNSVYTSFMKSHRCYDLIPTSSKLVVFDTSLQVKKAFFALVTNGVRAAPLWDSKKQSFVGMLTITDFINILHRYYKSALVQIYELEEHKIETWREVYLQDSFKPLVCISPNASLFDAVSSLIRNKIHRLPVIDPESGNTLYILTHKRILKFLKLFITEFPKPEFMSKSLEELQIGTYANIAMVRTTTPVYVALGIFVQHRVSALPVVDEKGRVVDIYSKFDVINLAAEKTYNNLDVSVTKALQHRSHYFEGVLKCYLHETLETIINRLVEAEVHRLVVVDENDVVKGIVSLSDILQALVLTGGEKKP
T1 sequence (Q9UGJ0 whole entry R531G): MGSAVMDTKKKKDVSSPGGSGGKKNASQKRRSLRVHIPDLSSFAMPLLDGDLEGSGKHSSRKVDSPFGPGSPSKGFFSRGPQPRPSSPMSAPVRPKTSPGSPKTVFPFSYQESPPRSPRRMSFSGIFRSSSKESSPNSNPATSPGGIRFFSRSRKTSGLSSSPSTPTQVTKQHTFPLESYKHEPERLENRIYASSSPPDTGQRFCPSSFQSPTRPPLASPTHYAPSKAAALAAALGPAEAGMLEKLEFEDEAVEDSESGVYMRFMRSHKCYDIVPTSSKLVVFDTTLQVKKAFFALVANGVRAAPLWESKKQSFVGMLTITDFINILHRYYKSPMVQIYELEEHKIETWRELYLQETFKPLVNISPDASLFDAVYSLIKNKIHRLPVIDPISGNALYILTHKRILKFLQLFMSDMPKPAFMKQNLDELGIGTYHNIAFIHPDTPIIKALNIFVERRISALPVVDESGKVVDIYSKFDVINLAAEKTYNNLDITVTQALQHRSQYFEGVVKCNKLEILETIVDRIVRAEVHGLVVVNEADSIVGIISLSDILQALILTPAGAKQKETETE
T3 sequence (Q13131 whole entry K40A/K42A): as the sequence (Q13131 whole entry) above, with K40A, K42A counted along it
T3 sequence (P54619 whole entry partner): as the sequence (P54619 whole entry partner) above

For the molecule `CN(C)S(=O)(=O)c1ccc2c(c1)/C(=C/c1cc3c([nH]1)CCCC3)C(=O)N2` [SU6656], the ACC phosphorylation entry in the experiment on ACC is listed as “increased phosphorylation”. In addition, the AMPK activity entry in experiment [1] is “activated AMPK and enhanced Thr172 phosphorylation in both WT and RG cells”; on AMPK-α1 (WT) (WT FLAG-α1 (comparison with AT mutant), 1 hr), “robustly activated”. Moreover, the “increase in activity and Thr172 phosphorylation” value at AMPK-α1 (WT) (WT FLAG-α1, 100 μM, relative to DMSO control) was determined as 3 fold; on AMPK-α1 AA mutant (AA mutant FLAG-α1, 100 μM, relative to DMSO control) it was 3 fold. Besides, the “AMPK activity and Thr172 phosphorylation” value at AMPK-α1 (WT) (1 hr) was “activated AMPK and caused Thr172 phosphorylation”.

With `CNC(=O)c1cc(Oc2ccc(NC(=O)Nc3ccc(Cl)c(C(F)(F)F)c3)cc2)ccn1` [sorafenib], the ACC phosphorylation result in the experiment on ACC is “promoted Thr172 and ACC phosphorylation”. In addition, the AMPK activity entry in experiment [1] was “Neither AMPK activity nor Thr172 phosphorylation were significantly elevated”.

Turning to `COc1ccc2cc3[n+](cc2c1OC)CCc1cc2c(cc1-3)OCO2` [berberine], the “AMPK activity and Thr172 phosphorylation” value on AMPK-α1 (WT) (1 hr) is “activated AMPK and caused Thr172 phosphorylation”. Besides, the “effect of AA mutation on AMPK activation” value at AMPK-α1 AA mutant (AA mutant FLAG-α1, same concentrations, 1 hr) is “abolished”.

These data come from article PMC5522529, “Mechanisms of Paradoxical Activation of AMPK by the Kinase Inhibitors SU6656 and Sorafenib” (Cell Chemical Biology, 2017).
